The values below come from patent US20070071782A1, “2-Cyanobenzenesulfonamides for combating animal pests” (priority 2003, published 2007).

Common to all, as to format: in vivo
Data set [1] concerns Argentine ants, Linepithema humile. Put plainly: whole plant or invertebrate. The following applies: for mortality at 1 % strength: Linepithema humile, 144 h, read-out: Mean cumulative % mortality 6 days after treatment. The protocol:
• a) The tests were conducted in petri dishes. Ants were given a water source and then were starved of a food source for 24 hours. Baits were prepared with 20% honey/water solution. A solution of the active ingredient in acetone was added to reach a concentration of the active ingredient of 1% by weight (w/w). 0.2 ml of the active ingredient containing honey/water solution, placed in a cap, was added to each dish. The dishes were covered and maintained at a water temperature of 22° C. […]
b) The tests were conducted as in example a). The following compounds I and II according to EP 33984 were used as comparative examples.

Data set [2] deals with Green Peach Aphid (Myzus persicae). Put plainly: Green Peach Aphid leaf-dip test on pepper plants. The following applies: foliar, 120 h, after 5 days, read-out: mortality in comparison with untreated controls. As to the method:
(§1) The active compounds were formulated in 50:50 acetone:water and 100 ppm Kinetic® surfactant.
Pepper plants in the 2nd leaf-pair stage (variety ‘California Wonder’) were infested with approximately 40 laboratory-reared aphids by placing infested leaf sections on top of the test plants. The leaf sections were removed after 24 hr. The leaves of the intact plants were dipped into gradient solutions of the test compound and allowed to dry. Test plants were maintained under fluorescent light (24 hour photoperiod) at about 25° C. and 20-40% relative humidity. Aphid mortality on the treated plants, relative to mortality on check plants, was determined after 5 days.

Data set [3] deals with Cotton Aphid (Aphis gossypii). In words: Cotton Aphid cotyledon-dip test on cotton plants. As to conditions: 120 h, after 5 days, read-out: mortality in comparison with untreated controls.
Source text: as §1
Cotton plants in the cotyledon stage (variety ‘Delta Pine’, one plant per pot) were infested by placing a heavily infested leaf from the main colony on top of each cotyledons. The aphids were allowed to transfer to the host plant overnight, and the leaf used to transfer the aphids were removed. The cotyledons were dipped in the test solution and allowed to dry. After 5 days, mortality counts were made.

Turning to `N#Cc1c(OC(F)F)cccc1S(N)(=O)=O` [Compound 78], the “mortality compared to untreated controls” value in data set [1] (in vivo) came to 100%.

One may read the mortality as the share of the test organisms that died. As to `CCCNS(=O)(=O)c1cccc(C)c1C#N` [Compound 1, n-Propyl-(2-cyano-3-methyl-phenyl)sulfonamide], the mortality at 300 ppm in data set [2] was over 85%.

On to `CCN(CC)S(=O)(=O)c1cccc(Cl)c1C#N` [Comparative Example I, reference compound], for which the mortality at 1 % strength in data set [1] came to 35.6%.

As to `CNS(=O)(=O)c1cccc(OC)c1C#N` [Compound 2, Methyl-(2-cyano-3-methoxy-phenyl)sulfonamide], the mortality at 300 ppm in data set [2] and in data set [3] was over 85% each time.

On to `C#CCNS(=O)(=O)c1cccc(OC(F)F)c1C#N` [Compound 79], for which the “mortality compared to untreated controls” value in data set [1] (in vivo) is 100%.

`CCNS(=O)(=O)c1cccc(Cl)c1C#N` [Comparative Example II, reference compound]: the mortality at 1 % strength in data set [1] was 35.6%.

Turning to `CCNS(=O)(=O)c1ccc(Cl)c(C)c1C#N` [Compound 3, Ethyl-(4-chloro-2-cyano-3-methyl-phenyl)sulfonamide], the mortality at 300 ppm in data set [2] and in data set [3] was over 85% throughout.

As to `CCNS(=O)(=O)c1cccc(OC(F)F)c1C#N` [Compound 66], in data set [1] (in vivo), the “Mean cumulative % mortality 6 days after treatment” value came out at 100.0% and the “mortality compared to untreated controls” value was determined as 100%.
